Where two headings read alike, the source gives them in different places.
Tests used:
PRMT5/MEP50 Complex = target: T1, PRMT5/MEP50 Complex (Homo sapiens, UniProt O14744); test: HotSpot radioisotope 3H-AdoMet methyltransferase assay, PRMT5/MEP50; format: biochemical
T1 construct: purchased Reaction Biology
Experimental: Future studies will focus on obtaining structural information of II757 bound to PRMTs to inform how to connect to a substrate portion to increase both potency and selectivity for each PRMT.
Figure 6 Selectivity of II757 against the panel of PRMTs. II757 was tested in 10 doses with threefold serial dilution in the HotSpot methyltransferase assay at reaction biology. TEXT PRINTED IN THE PICTURE: II757: IC50 (nM) PRMT1: 16.4; IC50 (nM) PRMT3: 321; IC50 (nM) PRMT4: 5.05; IC50 (nM) PRMT5/MEP50 Complex: 18.2; IC50 (nM) PRMT5 (C449S)/MEP50: 36.6; IC50 (nM) PRMT6: 30.5; IC50 (nM) PRMT7: 555; IC50 (nM) PRMT8: 32.1

TbPRMT7 = target: T2, TbPRMT7 (Trypanosoma brucei brucei, UniProt Q582G4); test: Selectivity SAHH-coupled fluorescence assay, TbPRMT7; format: biochemical; details: at 1.2 μM
T2 construct: made in house
Source text: We chose the top four potent compounds (6b and 6l–n) to investigate their selectivities against several in-house methyltransferases including protein arginine methyltransferase TbPRMT7, two members of the protein lysine methyltransferase PKMT (G9a and SETD7), protein N-terminal methyltransferase 1 (NTMT1), and a small molecule methyltransferase nicotinamide N-methyltransferase (NNMT), all of which have a SAM binding site.
A fluorescence-based SAHH-coupled assay was applied to study the effect of the compound on methyltransferase activity of PRMT7, NTMT1, SETD7, G9a, NNMT, and SAHH. For PRMT7, the assay was performed in a final well volume of 100 μL: 25 mM Tris (pH = 7.5), 50 mM KCl, 0.01% Triton X-100, 5 μM SAHH, 0.2 μM PRMT7, 3 μM AdoMet, and 15 μM ThioGlo1. After incubation for 10 min with the inhibitor, reactions were initiated by the addition of 60 μM H4-21 peptide, and the reaction was monitored for 15 min. […] After incubation for 10 min with the inhibitor, reactions were initiated by the addition of 0.5 μM GPKRIA peptide, and the reaction was monitored for 15 min. […] After incubation for 10 min with the inhibitor, reactions were initiated by the addition of 90 μM H3-21 peptide, and the reaction was monitored for 15 min. […] After incubation for 10 min with the inhibitor, reactions were initiated by the addition of 10 μM nicotinamide, and the reaction was monitored for 18 min. […]

PRMT1 = PRMT1 (Homo sapiens, UniProt Q99873); test: SAHH-coupled fluorescence assay, PRMT1 inhibition; format: biochemical
Experimental: A fluorescence-based SAHH-coupled assay was used to evaluate the IC50 values of inhibitors by monitoring the production of SAH from SAM after methylation. […] The fluorescence signal was monitored on a BMG CLARIOstar microplate reader with excitation at 400 nm and emission at 465 nm for 18 min. Data were processed using GraphPad Prism software 7.0. All experiments were performed in duplicate.
The fluorescence signal was monitored on a BMG CLARIOstar microplate reader with excitation at 400 nm and emission at 465 nm for 18 min. Data were processed using GraphPad Prism software 7.0. All experiments were performed in duplicate. […].

[1] = system: histone H4 Arg3 asymmetric dimethylation (H4R3me2a); test: Cellular arginine methylation assay, Western blot in HEK293 cells; format: cell-based; details: 48 h, at 10 µM
Experimental: Furthermore, we proceeded to investigate the inhibitory effects of II757 on the methylation level of histone H4 Arg3 via Western blotting to check its cellular inhibition. […] Future studies will focus on tethering this moiety with reported substrate-competitive inhibitors to enhance the selectivity and cellular potency.
HEK293 cell line was cultured in DMEM media supplemented with 10% FBS and 1% antibiotic-antimycotic (Gibco, Fisher, Waltham, MA, USA). The cells were maintained in a tissue culture dish (Falcon 353003, Fisher, Waltham, MA, USA) until seeding at a density of 0.03 × 10^6 cells/mL into a 24-well tissue culture plate (Falcon 353047, Fisher, Waltham, MA, USA). The cells were incubated overnight at 37 °C in 5% CO2 with the lid on. They were then treated with the inhibitors at different concentrations for 48 h. […]
The protein was quantified using BCA (Pierce BCA Protein Assay Kit, 23225, Fisher, Waltham, MA, USA) and equal amounts of protein were resolved by SDS-PAGE electrophoresis and blotted on Transfer membrane (Immun-Blot PVDF Membranes, Bio-Rad, Hercules, CA, USA Bio-Rad, 1620177). […] The membranes were washed three times with 1X TBST for 5 min each, and the proteins were detected by ECL (Bio-Rad, Hercules, CA, USA).

PRMT1, sequence (Q99873 whole entry, species assumed): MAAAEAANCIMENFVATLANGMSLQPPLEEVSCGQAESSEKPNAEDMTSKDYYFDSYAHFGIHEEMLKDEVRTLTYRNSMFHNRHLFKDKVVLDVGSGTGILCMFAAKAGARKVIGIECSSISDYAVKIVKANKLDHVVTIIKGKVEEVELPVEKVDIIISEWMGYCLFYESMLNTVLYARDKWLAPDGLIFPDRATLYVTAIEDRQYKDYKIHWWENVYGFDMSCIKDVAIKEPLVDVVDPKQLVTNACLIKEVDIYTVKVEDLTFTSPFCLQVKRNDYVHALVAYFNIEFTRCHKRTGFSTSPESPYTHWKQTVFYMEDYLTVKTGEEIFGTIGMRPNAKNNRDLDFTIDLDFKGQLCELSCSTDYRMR
T1 sequence (O14744 whole entry): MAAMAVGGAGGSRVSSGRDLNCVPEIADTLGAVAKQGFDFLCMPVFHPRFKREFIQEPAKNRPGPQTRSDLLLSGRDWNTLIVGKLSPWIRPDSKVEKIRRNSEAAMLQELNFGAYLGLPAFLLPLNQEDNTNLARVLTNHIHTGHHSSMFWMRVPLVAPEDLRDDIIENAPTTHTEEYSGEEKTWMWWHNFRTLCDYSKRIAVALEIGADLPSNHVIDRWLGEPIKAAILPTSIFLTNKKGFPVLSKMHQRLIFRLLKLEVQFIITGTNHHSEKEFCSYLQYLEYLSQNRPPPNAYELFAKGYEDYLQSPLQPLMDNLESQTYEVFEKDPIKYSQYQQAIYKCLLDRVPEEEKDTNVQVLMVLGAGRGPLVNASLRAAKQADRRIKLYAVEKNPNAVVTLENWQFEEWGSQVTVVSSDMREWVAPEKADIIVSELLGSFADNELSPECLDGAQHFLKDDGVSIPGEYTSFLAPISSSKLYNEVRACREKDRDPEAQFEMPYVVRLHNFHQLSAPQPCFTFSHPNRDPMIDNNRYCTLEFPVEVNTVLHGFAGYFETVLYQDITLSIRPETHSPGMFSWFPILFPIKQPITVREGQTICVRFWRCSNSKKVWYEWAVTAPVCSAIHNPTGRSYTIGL
T1 sequence (Q9BQA1 whole entry partner): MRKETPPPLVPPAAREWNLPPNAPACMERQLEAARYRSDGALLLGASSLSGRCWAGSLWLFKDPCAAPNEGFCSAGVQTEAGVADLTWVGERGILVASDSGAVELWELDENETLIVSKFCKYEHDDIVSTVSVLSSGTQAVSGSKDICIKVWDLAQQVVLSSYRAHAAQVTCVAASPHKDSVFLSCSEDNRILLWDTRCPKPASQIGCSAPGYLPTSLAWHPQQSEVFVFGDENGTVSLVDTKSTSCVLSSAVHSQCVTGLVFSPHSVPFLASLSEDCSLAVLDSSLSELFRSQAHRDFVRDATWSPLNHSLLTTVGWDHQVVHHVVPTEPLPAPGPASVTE
T2 sequence (Q582G4 whole entry): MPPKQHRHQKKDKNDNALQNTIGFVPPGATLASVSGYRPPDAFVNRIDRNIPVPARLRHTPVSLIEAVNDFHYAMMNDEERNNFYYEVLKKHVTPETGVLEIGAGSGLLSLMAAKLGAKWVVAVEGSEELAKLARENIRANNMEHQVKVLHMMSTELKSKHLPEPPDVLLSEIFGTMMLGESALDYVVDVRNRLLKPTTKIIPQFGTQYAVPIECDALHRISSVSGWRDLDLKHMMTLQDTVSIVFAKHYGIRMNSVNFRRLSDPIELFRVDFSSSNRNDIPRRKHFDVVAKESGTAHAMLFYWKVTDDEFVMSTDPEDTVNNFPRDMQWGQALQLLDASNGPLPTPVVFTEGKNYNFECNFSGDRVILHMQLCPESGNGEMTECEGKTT

**Q.** `N=C(NCCCSC[C@H]1O[C@@H](n2cnc3c(N)ncnc32)[C@H](O)[C@@H]1O)Nc1cccc(Br)c1` [Compound 6l, 1-(3-((((2S,3S,4R,5R)-5-(6-amino-9H-purin-9-yl)-3,4-dihydroxytetrahydrofuran-2-yl)methyl)thio)propyl)-3-(3-bromophenyl)guanidine] was tested. Which IC50 (PRMT5/MEP50 Complex) did it give?
**A.** 18.2 nM

**Q.** What about the “activity against PRMT7” value (TbPRMT7) of the same compound?
**A.** about 30%

**Q.** And the IC50 (PRMT1; PRMT1 0.1 µM, substrate concentration at 4 Km (footnote a), n = 2, mean ± SD)?
**A.** 90 ± 40 nM

**Q.** What about the Ki (PRMT1; SAHH-coupled assay, PRMT1, read-out: apparent Ki) of the same compound?
**A.** ~18 nM

**Q.** And the Ki (PRMT1; calculated as Ki, app = IC50/(1 + [S]/Km), read-out: Ki, app)?
**A.** 18 ± 8 nM

**Q.** What about the H4R3me2a level [1] of the same compound?
**A.** decrease

Reference: PMC8230315, “A Pan-Inhibitor for Protein Arginine Methyltransferase Family Enzymes” (Biomolecules, 2021)
